Measured values from paper PMC10451377, “Rationally Designed Pyrimidine Compounds: Promising Novel Antibiotics for the Treatment of Staphylococcus aureus-Associated Bovine Mastitis” (Antibiotics, 2023).
In brackets after ≈: the same amount, converted by molar mass. Where two headings read alike, the source gives them in different places.

Columns and labels:
[1] = system: Staphylococcus aureus CMRSA-10; assay: Broth microdilution MIC; format: cell-based
Source text: (§1) Reference strains for this study (S. aureus ATCC 29213, ATCC 29740 [bovine mastitis strain Newbould], S. epidermidis ATCC 12228, E. coli ATCC 35695, E. faecalis ATCC 29212) were obtained from the American Type Culture Collection (ATCC, Rockville, MD). S. aureus strains CMRSA-10 and CMRSA-2 were obtained from the Laboratoire de santé publique du Québec (LSPQ, Sainte-Anne-de-Bellevue, QC, Canada) and are Canadian CA-MRSA USA-300 and HA-MRSA USA-100 clones, respectively. The strain E. coli imp4213 (lptD), used as a control in MIC assays, is a derivative of E. coli ATCC 35695 (E. coli MC4100) with an increased membrane permeability. […] Other MRSA strains used in this study are clinical isolates of human origin obtained from the microbiology laboratory of the Centre Hospitalier Universitaire de Sherbrooke (CHUS, Sherbrooke, QC, Canada). Bovine mastitis strains (S. aureus, S. chromogenes, S. haemolyticus, S. hominis, S. simulans) were obtained from the Canadian Bovine Mastitis and Milk Quality Research Network (CBRQMN, St-Hyacinthe, QC, Canada). Among these strains, S. aureus 2117 is a high producer of biofilm and was used in the biofilm-eradication assay. S. epidermidis isolates were provided by Centre de Recherche en Infectiologie (CRI) de Québec (Québec, QC, Canada).

[2] = system: Staphylococcus aureus CMRSA-2; assay: Broth microdilution MIC; format: cell-based
Source text: as §1

[3] = system: Bacillus subtilis xpt-lacZ; assay: Broth microdilution MIC; format: cell-based; conditions: B. subtilis xpt-lacZ, read-out: Broth Microdilution MIC
Bovine S. aureus = assay: Susceptibility of isolate panel (MIC50, MIC90, range); format: cell-based, Staphylococcus aureus; conditions: Bovine S. aureus, 48 isolates, CAMHB with 2% NaCl
Source text: as §1
(§2) The antibacterial activity of the most promising compound, PC206, was also evaluated against larger groups of clinical isolates of human and animal origin. The MIC50 and MIC90 values represented the concentrations of drug required to inhibit the growth of 50% and 90% of the bacterial strains tested, respectively.

MRSA = assay: as above; format: cell-based, Staphylococcus aureus; conditions: 42 isolates, CAMHB with 2% NaCl
Source text: as §1, §2

S. haemolitycus = assay: as above; format: cell-based, S. haemolyticus; conditions: Staphylococcus haemolyticus, S. haemolitycus, 10 isolates, CAMHB with 2% NaCl
Source text: as §1, §2

S. chromogenes = assay: as above; format: cell-based; conditions: S. chromogenes, 5 isolates, CAMHB with 2% NaCl
Source text: as §1, §2

S. epidermidis = assay: as above; format: cell-based; conditions: S. epidermidis, 10 isolates, CAMHB with 2% NaCl
Source text: as §1, §2

S. hominis = assay: as above; format: cell-based; conditions: Staphylococcus hominis, S. hominis, 10 isolates, CAMHB with 2% NaCl
Source text: as §1, §2

S. simulans = assay: as above; format: cell-based; conditions: S. simulans, 5 isolates, CAMHB with 2% NaCl
Source text: as §1, §2

[4] = system: guanine riboswitch-lacZ fusion construct (xpt-lacZ); assay: Riboswitch regulation assay (lacZ-gene reporter); format: cell-based, B. subtilis
Source text: The novel pyrimidine compounds, especially PC206, display specificity and potency against some staphylococci but not the other bacterial genus (Table 1 and Table 2). Because they are structurally derived from PC1 and PC2, these novel antibiotic candidates are expected to have the same mode of action. […] To verify this hypothesis, a strain of B. subtilis with a guanine riboswitch-lacZ fusion construct (named xpt-lacZ) integrated in its chromosome was exposed to these new antimicrobials. […] Therefore, it is an adequate reporter species. The metabolization of substrate ONPG into colored ONP was normalized by the bacterial suspension absorbance at 600 nm (Miller units) and relativized to the untreated condition.
β-galactosidase gene expression in the presence of the new pyrimidine analogs was studied, using an xpt-lacZ transcriptional fusion construct integrated in the genome of B. subtilis as previously described. Briefly, cultures were grown for 5 h at 35 °C in CAMHB, from an initial optical density of 0.05 at 600 nm (OD600), and then diluted 1:20 and in the presence of different concentrations of the compounds tested. Cultures were centrifuged for 10 min at 13,100 rpm, the supernatant was discarded, and pellets were suspended in a Z-buffer (NaH2PO4 40 mM, Na2HPO4 60 mM, MgSO4 1 mM, KCl 10 mM). Cultures OD600 were measured, and bacteria were then lysed with lysozyme (1 mg/mL) and β-mercaptoethanol 50 mM for 30 min. Lysates were centrifuged for 10 min at 13,100 rpm, and supernatants were incubated for 5 min at 30 °C with the substrate orthonitrophenyl-β-galactoside (ONPG; Sigma Aldrich). Reactions were stopped with Na2CO3 1M, supernatants OD420 were measured, and Miller units were calculated. A decrease in β-galactosidase activity indicated binding of the test compound to the riboswitch. Guanine and oxacillin were used as […] controls, respectively. The formula to measure Miller units is as follows: Millerunits=1000×OD420/t·v·OD600
Here, t represents the time of incubation with ONPG, and v represents the volume of the reaction.

[5] = system: Staphylococcus aureus ATCC 29213; assay: Broth microdilution MIC; conditions: ATCC29213, read-out: Broth Microdilution MIC
[6] = system: Escherichia coli ΔlptD4213; assay: microbe, parasite or virus in culture; format: cell-based; conditions: read-out: Broth Microdilution MIC
Source text: as §1

MTT assay [7] = format: cell-based; conditions: human, HepG2 cells
MTT assay [8] = format: cell-based; conditions: bovine, MAC-T cells, 24 h
LDH release assay [9] = format: cell-based; conditions: human, HepG2 cells
LDH release assay [10] = format: cell-based; conditions: bovine, MAC-T cells, 24 h
[11] = system: Staphylococcus epidermidis ATCC 12228; assay: Broth microdilution MIC; conditions: ATCC12228, read-out: Broth Microdilution MIC
[12] = system: Enterococcus faecalis ATCC 29212; assay: Broth microdilution MIC; conditions: ATCC29212, read-out: Broth Microdilution MIC
[13] = system: Escherichia coli ATCC 35695; assay: Broth microdilution MIC; conditions: ATCC35695, read-out: Broth Microdilution MIC
[14] = system: all tested bacterial strains, including non-staphylococci strains; assay: Broth microdilution MIC, summary over all strains tested; conditions: read-out: MIC against all tested bacterial strains
[15] = Staphylococcus aureus, read-out: MIC50
[16] = Staphylococcus aureus, read-out: MIC90

Cc1onc(-c2ccccc2)c1C(=O)N[C@@H]1C(=O)N2[C@@H]1SC(C)(C)[C@@H]2C(=O)O [OXA, oxacillin]
MIC ([1]; CMRSA10, S. aureus CMRSA-10, CAMHB supplemented with 2% NaCl, read-out: Broth Microdilution MIC): 64 µg/mL (≈ 159 µM) | MIC ([2]; CMRSA2, S. aureus CMRSA-2, CAMHB supplemented with 2% NaCl, read-out: Broth Microdilution MIC): > 64 µg/mL | MIC [3]: 0.25 µg/mL (≈ 0.623 µM) | MIC Range (Bovine S. aureus): 0.03 to 32 µg/mL | MIC50 (Bovine S. aureus; [15]): 0.12 µg/mL (≈ 0.299 µM) | MIC90 (Bovine S. aureus; [16]): 0.25 µg/mL (≈ 0.623 µM) | MIC Range (MRSA): 4 to 64 µg/mL | MIC50 (MRSA; [15]): 32 µg/mL (≈ 79.7 µM) | MIC90 (MRSA; [16]): 64 µg/mL (≈ 159 µM) | MIC50 (S. haemolitycus; read-out: MIC50): > 16 µg/mL | MIC90 (S. haemolitycus; read-out: MIC90): > 16 µg/mL | MIC Range (S. chromogenes): 0.06 to 0.12 µg/mL | MIC50 (S. chromogenes; read-out: MIC50): 0.12 µg/mL (≈ 0.299 µM) | MIC90 (S. chromogenes; read-out: MIC90): 0.12 µg/mL (≈ 0.299 µM) | MIC Range (S. epidermidis): 0.03 to 16 µg/mL | MIC50 (S. epidermidis; Staphylococcus epidermidis, read-out: MIC50): 2 µg/mL (≈ 4.98 µM) | MIC90 (S. epidermidis; Staphylococcus epidermidis, read-out: MIC90): > 16 µg/mL | MIC50 (S. hominis; read-out: MIC50): 1 µg/mL (≈ 2.49 µM) | MIC90 (S. hominis; read-out: MIC90): > 16 µg/mL | MIC Range (S. simulans): 0.06 to 0.12 µg/mL | MIC50 (S. simulans; Staphylococcus simulans, read-out: MIC50): 0.06 µg/mL (≈ 0.149 µM) | MIC90 (S. simulans; Staphylococcus simulans, read-out: MIC90): 0.12 µg/mL (≈ 0.299 µM) | Effect on Miller units ([4]; concentrations below the MIC of 0.25 µg/mL): did not affect the expression of Miller units | MIC [5]: 0.25 µg/mL (≈ 0.623 µM)

CCCNc1cc(N)nc(N)n1 [PC371]
MIC ([1]; CMRSA10, read-out: Broth Microdilution MIC): > 128 µg/mL | MIC ([2]; CMRSA2, read-out: Broth Microdilution MIC): > 128 µg/mL | MIC [6]: > 128 µg/mL | MIC [3]: > 128 µg/mL | Effect on Miller units ([4]; 512 and 1024 μg/mL, one experiment): did not have any effect on the reporter gene expression | CC50 at 24 h (MTT assay [7]): > 600 µM | CC50 at 24 h (MTT assay [8]): > 600 µM | CC50 at 24 h (LDH release assay [9]): > 600 µM | CC50 at 24 h (LDH release assay [10]): > 600 µM | MIC [5]: > 128 µg/mL | MIC [11]: > 128 µg/mL | MIC [12]: > 128 µg/mL | MIC [13]: > 128 µg/mL | MIC [14]: > 128 µg/mL
